Literature values as cited in US11033601B2, “Selective inhibition of V1b for treating fatty liver” (The Regents of the University of Colorado, priority 2017, dated 2021).

Target: V2 receptors (Homo sapiens, UniProt P30518)
Sequence (P30518 whole entry): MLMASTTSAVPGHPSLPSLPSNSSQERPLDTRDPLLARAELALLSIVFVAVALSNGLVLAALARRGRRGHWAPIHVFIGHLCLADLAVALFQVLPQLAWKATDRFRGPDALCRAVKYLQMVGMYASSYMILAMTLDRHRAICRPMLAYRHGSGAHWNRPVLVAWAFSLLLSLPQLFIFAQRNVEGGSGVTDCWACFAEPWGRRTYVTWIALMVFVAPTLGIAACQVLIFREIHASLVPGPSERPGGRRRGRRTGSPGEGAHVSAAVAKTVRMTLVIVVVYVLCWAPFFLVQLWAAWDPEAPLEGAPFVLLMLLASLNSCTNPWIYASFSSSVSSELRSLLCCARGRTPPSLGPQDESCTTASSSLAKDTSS

effects on V2 receptors: little effects
SMILES: COc1ccc(S(=O)(=O)N2C(=O)[C@@](c3ccccc3OC)(N3C[C@H](O)C[C@H]3C(=O)N(C)C)c3cc(Cl)ccc32)c(OC)c1 [Nelivaptan]
